Test systems include IGROV-1; MDA-MB-435; OVCAR-5; Malme-3M; SN12C; TK-10; 786-0; MDA-MB-231; RPMI-8226; SNB-75; COLO 205; CAKI-1; SK-MEL-28; DU-145; RXF 393; SK-OV-3; MCF7; PC-3; SK-MEL-2.
Holding throughout (experiment): NCI-60 cell line screen, 48 h

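In this assay, cells in 96-well plates receive the compound at five concentrations for 48 hours. Endpoints are linearly interpolated between the surrounding concentrations. Abbreviation: GI50, concentration required for 50% inhibition of growth.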 Calls of active or inactive are those of the source. Rule as the data show it: active = GI50 up to about 1.1 µM and inactive = higher. Some results are limits rather than exact numbers.

Take `CC(=O)OCC1OC(SC2OC(COC(C)=O)C(OC(C)=O)C(OC(C)=O)C2OC(C)=O)C(OC(C)=O)C(OC(C)=O)C1OC(C)=O` (centres undefined): the GI50 with IGROV-1, in the experiment with MDA-MB-435, with OVCAR-5, with Malme-3M, with SN12C and in the experiment with TK-10 was > 100 µM (inactive) each time. Moreover, the GI50 with 786-0, with MDA-MB-231, with RPMI-8226, with SNB-75, in the experiment on COLO 205 and in the experiment with CAKI-1 was > 100 µM (inactive) throughout. Also, the GI50 in the experiment with SK-MEL-28, with DU-145, with RXF 393, in the experiment on SK-OV-3 and in the experiment on MCF7 was > 100 µM (inactive) each time.
For `C(=C\C(SCc1ccccc1)SCc1ccccc1)/c1ccccc1`, the GI50 in the experiment on IGROV-1, in the experiment on Malme-3M, with SN12C, with TK-10, with 786-0 and in the experiment with MDA-MB-231 was > 10 µM (inactive) in each case. Further, the GI50 with RPMI-8226, in the experiment with SNB-75, in the experiment with COLO 205, in the experiment on PC-3, in the experiment with CAKI-1 and in the experiment with SK-MEL-2 was > 10 µM (inactive) throughout. Besides, the GI50 in the experiment with SK-MEL-28, with DU-145, with RXF 393, with SK-OV-3 and with MCF7 was > 10 µM (inactive) in each case.
In the case of `c1ccc([B-]2(c3ccccc3)OCCc3cccc[n+]32)cc1`, the GI50 with IGROV-1 is 66.1 µM (inactive); in the experiment with MDA-MB-435 it was 33.3 µM (inactive); with OVCAR-5 it was > 100 µM (inactive); with Malme-3M, 42.4 µM (inactive); with SN12C, 59.3 µM (inactive); in the experiment on TK-10, 54.3 µM (inactive). Moreover, the GI50 in the experiment with 786-0 is 70.1 µM (inactive); in the experiment on MDA-MB-231 it was 84.5 µM (inactive); with RPMI-8226, 65.3 µM (inactive); with COLO 205 it was 26.2 µM (inactive); in the experiment on PC-3, 18.5 µM (inactive); in the experiment on CAKI-1, 33 µM (inactive). Also, the GI50 with SK-MEL-2 was 75.9 µM (inactive); in the experiment on SK-MEL-28, 47.8 µM (inactive); in the experiment on DU-145, 88.1 µM (inactive); in the experiment on RXF 393 it was 33.3 µM (inactive); in the experiment with SK-OV-3 it was 74.8 µM (inactive).
As to `Oc1ccc(-c2nc3cc(F)ccc3s2)cc1`, the GI50 in the experiment with IGROV-1 was 17.5 µM (inactive); in the experiment on MDA-MB-435, 20 µM (inactive); in the experiment with OVCAR-5 it was 23.1 µM (inactive); in the experiment with Malme-3M, 16.5 µM (inactive); with SN12C, 22.2 µM (inactive); in the experiment on TK-10, 34.1 µM (inactive). Besides, the GI50 with 786-0 was 28.6 µM (inactive); in the experiment with RPMI-8226, 24 µM (inactive); in the experiment with COLO 205, 18.6 µM (inactive); with PC-3, 22.9 µM (inactive); in the experiment with CAKI-1 it was 23.7 µM (inactive); in the experiment with SK-MEL-2, 19.1 µM (inactive). Besides, the GI50 in the experiment on SK-MEL-28 is 21.6 µM (inactive); in the experiment with DU-145, 21.8 µM (inactive); in the experiment on RXF 393, 27.4 µM (inactive); with SK-OV-3, 25.7 µM (inactive); in the experiment with MCF7, 1.14 µM (inactive).
For `Cc1nc(N)sc1C(=O)Nc1nc[nH]n1`, the GI50 with IGROV-1, with MDA-MB-435, with OVCAR-5, in the experiment with SN12C, in the experiment on TK-10 and in the experiment on 786-0 was > 100 µM (inactive) in each case. For the same molecule, the GI50 in the experiment on MDA-MB-231, in the experiment with RPMI-8226, with COLO 205, with PC-3, in the experiment on CAKI-1 and in the experiment on SK-MEL-2 was > 100 µM (inactive) each time. The GI50 with SK-MEL-28, in the experiment with DU-145, with RXF 393, in the experiment with SK-OV-3 and in the experiment on MCF7 was > 100 µM (inactive) each time.
For the molecule `Cc1cs/c(=N/c2ccccc2)n1CCC(O)(P(=O)(O)O)P(=O)(O)O`, the GI50 in the experiment on IGROV-1, in the experiment with OVCAR-5, in the experiment with Malme-3M, in the experiment on TK-10, in the experiment with 786-0 and with MDA-MB-231 was > 100 µM (inactive) in each case. Further, the GI50 in the experiment with SNB-75, in the experiment on COLO 205, in the experiment on PC-3, with CAKI-1, with DU-145 and in the experiment with RXF 393 was > 100 µM (inactive) in each case. Besides, the GI50 in the experiment on SK-OV-3 and in the experiment on MCF7 was > 100 µM (inactive) each time.
For the molecule `N#CCN1CCOCCOCCN(CC#N)CCOCCOCC1`, the GI50 with IGROV-1, in the experiment on OVCAR-5, in the experiment with Malme-3M, in the experiment with SN12C, in the experiment with TK-10 and with 786-0 was > 100 µM (inactive) in each case. The GI50 in the experiment on RPMI-8226, in the experiment on SNB-75, in the experiment with COLO 205, in the experiment with CAKI-1, with SK-MEL-28 and in the experiment on RXF 393 was > 100 µM (inactive) each time.
For the molecule `O=C1CC[C@@]2(O)[C@H]3Cc4ccc(-c5cccc(O)c5)c5c4[C@@]2(CCN3CC2CC2)[C@H]1O5`, the GI50 in the experiment with IGROV-1 is 23.6 µM (inactive); in the experiment on MDA-MB-435, 14 µM (inactive); in the experiment on OVCAR-5, 13.6 µM (inactive); with SN12C it was 17.6 µM (inactive); in the experiment on TK-10 it was 1.01 µM (active); in the experiment on 786-0 it was 18.2 µM (inactive). Further, the GI50 in the experiment on MDA-MB-231 was 22.4 µM (inactive); in the experiment on RPMI-8226, 23.3 µM (inactive); with COLO 205, 21 µM (inactive); in the experiment with PC-3 it was 20.3 µM (inactive); in the experiment with CAKI-1, 37.6 µM (inactive); with SK-MEL-2, 1.51 µM (inactive). Further, the GI50 was 32.2 µM (inactive) in the experiment with SK-MEL-28, 22.6 µM (inactive) in the experiment with DU-145, 17.3 µM (inactive) in the experiment with RXF 393 and 16.9 µM (inactive) in the experiment on MCF7.
Take `CN1CCN(CN2C(=O)C3C4C=CC(C3C2=O)C2C3C(=O)N(CN5CCN(C)CC5)C(=O)C3C42)CC1` (centres undefined): the GI50 in the experiment with IGROV-1 is 34.2 µM (inactive); with OVCAR-5, 30.8 µM (inactive); in the experiment with SN12C it was 20.3 µM (inactive); with TK-10, 38 µM (inactive); in the experiment with 786-0, 18.2 µM (inactive); in the experiment with RPMI-8226, 24.7 µM (inactive). Besides, the GI50 was 27.4 µM (inactive) in the experiment on SNB-75, 17.5 µM (inactive) with COLO 205, 23.5 µM (inactive) with SK-MEL-28 and 22.9 µM (inactive) with RXF 393.
`C/C(O[Si](C(C)C)(C(C)C)C(C)C)=C(\C)C(=O)N(C)c1ccccc1Cl`: the GI50 in the experiment on IGROV-1, with MDA-MB-435, in the experiment with OVCAR-5, in the experiment on Malme-3M, in the experiment on SN12C and in the experiment with TK-10 was > 100 µM (inactive) in each case. The GI50 is > 100 µM (inactive) with 786-0; > 100 µM (inactive) in the experiment with MDA-MB-231; > 100 µM (inactive) in the experiment on RPMI-8226; 81.5 µM (inactive) with SNB-75; > 100 µM (inactive) in the experiment with COLO 205; > 100 µM (inactive) in the experiment with CAKI-1. Also, the GI50 with SK-MEL-28, in the experiment with DU-145 and with RXF 393 was > 100 µM (inactive) each time.
Turning to `O=C(Nc1cccc(F)c1)c1cc2ccc(O)cc2o/c1=N\c1cccc(F)c1`, the GI50 with IGROV-1 was 2.08 µM (inactive); in the experiment with MDA-MB-435 it was 5.12 µM (inactive); in the experiment with OVCAR-5 it was 34 µM (inactive); in the experiment on Malme-3M, 4.37 µM (inactive); with SN12C, 5.96 µM (inactive); with 786-0, 7.85 µM (inactive). Moreover, the GI50 in the experiment on RPMI-8226 is 2.87 µM (inactive); in the experiment with COLO 205, > 100 µM (inactive); in the experiment on PC-3, 17.9 µM (inactive); with CAKI-1, 15.3 µM (inactive); with SK-MEL-2, 8.2 µM (inactive); in the experiment with SK-MEL-28 it was 5.09 µM (inactive). In addition, the GI50 was 4.27 µM (inactive) in the experiment with DU-145, 13.2 µM (inactive) with SK-OV-3 and 3.58 µM (inactive) in the experiment on MCF7.
For `O=S1(=O)OCCOS(=O)(=O)C1S(=O)(=O)c1ccc2ccccc2c1`, the GI50 in the experiment with IGROV-1, with MDA-MB-435, in the experiment on OVCAR-5, with Malme-3M, with SN12C and in the experiment on TK-10 was > 100 µM (inactive) in each case. Moreover, the GI50 in the experiment with 786-0, in the experiment with MDA-MB-231, in the experiment with RPMI-8226, in the experiment with COLO 205, in the experiment on PC-3 and in the experiment with CAKI-1 was > 100 µM (inactive) in each case. Moreover, the GI50 in the experiment with SK-MEL-2, in the experiment on SK-MEL-28, in the experiment with DU-145 and with MCF7 was > 100 µM (inactive) throughout.
For the molecule `CC(C)(Cl)C(Br)CCC(C)(Br)C(Br)CBr` (centres undefined), the GI50 in the experiment with IGROV-1 is 19.6 µM (inactive); in the experiment on MDA-MB-435, 17.8 µM (inactive); in the experiment with OVCAR-5 it was 15.7 µM (inactive); with Malme-3M, 17.4 µM (inactive); in the experiment with SN12C, 20 µM (inactive); in the experiment with TK-10, 27.5 µM (inactive). The GI50 with 786-0 was 17.4 µM (inactive); in the experiment on MDA-MB-231, 12.9 µM (inactive); with RPMI-8226, 19.2 µM (inactive); in the experiment on COLO 205 it was 16.9 µM (inactive); in the experiment on PC-3, 24.9 µM (inactive); in the experiment with SK-MEL-2, 14.7 µM (inactive). In addition, the GI50 is 17.2 µM (inactive) in the experiment on SK-MEL-28, 19.6 µM (inactive) with DU-145, 22.1 µM (inactive) in the experiment on RXF 393 and 29.1 µM (inactive) in the experiment with SK-OV-3.
